Laboratory results as given in US20200113902A1, “COMPOSITIONS AND METHODS FOR TREATING CANCERS WITH COVALENT INHIBITORS OF CYCLIN-DEPENDENT KINASE 7 (CDK7)” (Syros Pharmaceuticals, Inc., priority 2017, published 2020).

How the values were obtained:
[1] = system: gene expression in MDA-MB468 cells; experiment: Gene expression profiling via RNA-seq (DESeq2, linear model), MDA-MB468; type: cell-based; conditions: four hours, JQ1 125 nM, Compound 1 25 nM
Experimental: (§1) In addition, we compared the ability of JQ1 alone, Compound 1 alone, and a combination of JQ1 and Compound 1 to modify expression of various genes in two breast cancer cell lines. Two triple-negative breast cancer cell lines (HCC70 and MDA-MB468) were tested. The cell lines were treated with JQ1, Compound 1, the JQ1/Compound 1 combination, or DMSO for four hours, after which gene expression profiling via RNA-seq was performed. JQ1 was administered to the cells at a 125 nM final concentration in both single agent and combination experiments. Compound 1 was administered to the cells at a 25 nM final concentration in both single agent and combination experiments. Each experiment was performed in triplicate. One replicate of MDA-MB-468 treated with single-agent JQ1 was excluded from further analysis due to quality.
(§2) We employed DESeq2 (Love et al., Genome Biology, 15(12):550, 2014) to identify changes in gene expression due to the JQ1, Compound 1, and JQ1-Compound 1 combination treatment compared to the control DMSO condition based on the RNA-seq data. Genes resulting in a p-value below 0.01 and an absolute logFoldChange above 0.5 were considered to be differentially expressed. […] The same is true for 1459 of 2414 genes in MDA-MB468.
(§3) To identify the genes whose expression is impacted synergistically by the drug combination, we modeled the effect of each drug treatment on expression using a linear model. The expression of each gene after the combination treatment can be thought of as the combined impact of Compound 1, JQ1, and any synergistic interaction between the drug treatments on baseline gene expression. A linear model used to describe this relationship could therefore be represented as:
(§4) Gene Expression after combination treatment=Baseline Expression+Compound 1 effect+JQ1 effect+Combination effect (Synergistic Impact)
(§5) By fitting the expression data for each gene using this model, we were able to evaluate the effect of each treatment, and identify cases where a synergistic interaction between Compound 1 and JQ1 impacts final gene expression. After fitting the linear model to each gene, the weight and p-value of each term can be evaluated. The combination term's weight signifies the mean change resulting from a synergetic impact on expression, with a negative weight indicating synergistic downregulation. Its associated p-value represents the probability that the combination term is not relevant to final gene expression. Using this approach, we identified 1806 genes in HCC70 and 2205 genes in MDA-MB468 whose expression change in the combination treatment was synergistic and whose associated p-value was less than a threshold cutoff of 0.01. The expression of these synergistic genes could not be explained by an additive effect of Compound 1 and JQ1 alone.

[2] = system: gene expression in HCC70 cells; experiment: Gene expression profiling via RNA-seq (DESeq2, linear model), HCC70; type: cell-based; conditions: four hours, JQ1 125 nM, Compound 1 25 nM
Experimental: as §1, §2, §3, §4, §5

[3] = system: HR^+ breast cancer cell lines; conditions: several HR^+ breast cancer cell lines; cited from earlier work

Structure (SMILES)	Average Expression (TPM) FOXC1 ([1]; DMSO 33.731) [TPM]	Average Expression (TPM) GATA3 ([1]; DMSO 34.244) [TPM]	Average Expression (TPM) TGIF1 ([1]; DMSO 145.88) [TPM]	Average Expression (TPM) GATA3 ([2]; DMSO 32.685) [TPM]	Average Expression (TPM) FOXC1 ([2]; DMSO 40.481) [TPM]	Average Expression (TPM) TGIF1 ([2]; DMSO 62.523) [TPM]	In vitro synergy with fulvestrant [3]
Cc1sc2c(c1C)C(c1ccc(Cl)cc1)=N[C@@H](CC(=O)OC(C)(C)C)c1nnc(C)n1-2 [JQ1, reference compound]	37.112	32.491	151.60	29.574	40.529	52.509	–
CN(C)C/C=C/C(=O)Nc1ccc(C(=O)Nc2cccc(Nc3ncc(Cl)c(-c4c[nH]c5ccccc45)n3)c2)cc1 [THZ-1]	–	–	–	–	–	–	synergy
